For test [1], the target named is Somatostatin receptor type 1 (Homo sapiens, UniProt P30872).
In test [2] the target is Somatostatin receptor type 2 (Mus musculus, UniProt P30875).
The target of test [3] is Somatostatin receptor type 3 (Mus musculus, UniProt P30935).

*1 amine or outer side, *2 acyl side, *3 side chain or, on linkers, in order; H or OH if unused. Where a SMILES comes first, the peptide text is derived from it. Bridges are numbered along the chain shown (N, C = ends). [ ]: non-standard residue; d: D form. The star is where a group is joined. ξ: configuration not given here. Phe(4-NO2) = N[C@@H](Cc1ccc([N+](=O)[O-])cc1)C(=O)O; NH(1-naphthylmethyl) = c1ccc2c(CN*)cccc2c1; Phe(4-Cl) = N[C@@H](Cc1ccc(Cl)cc1)C(=O)O; 1Nal = N[C@@H](Cc1cccc2ccccc12)C(=O)O; 2Nal = N[C@@H](Cc1ccc2ccccc2c1)C(=O)O; d1Nal = N[C@H](Cc1cccc2ccccc12)C(=O)O; d2Nal = N[C@H](Cc1ccc2ccccc2c1)C(=O)O; dThr(3ξ) = CC(O)[C@@H](N)C(=O)O; X1 = O=C(C(N[*:1])S[*:3])[*:2]; Thr(3ξ) = CC(O)[C@H](N)C(=O)O; NMeA = CN[C@@H](C)C(=O)O; ξF = NC(Cc1ccccc1)C(=O)O; Abu = CC[C@H](N)C(=O)O; X2 = CC(O)[C@H](CO)N*; Ahp = NCCCCCCC(=O)O; ξC = NC(CS)C(=O)O; Mpa = O=C(O)CCS Where only a bound is given, the exact number is not on record here.

Somatostatin receptor type 1, sequence (P30872 whole entry): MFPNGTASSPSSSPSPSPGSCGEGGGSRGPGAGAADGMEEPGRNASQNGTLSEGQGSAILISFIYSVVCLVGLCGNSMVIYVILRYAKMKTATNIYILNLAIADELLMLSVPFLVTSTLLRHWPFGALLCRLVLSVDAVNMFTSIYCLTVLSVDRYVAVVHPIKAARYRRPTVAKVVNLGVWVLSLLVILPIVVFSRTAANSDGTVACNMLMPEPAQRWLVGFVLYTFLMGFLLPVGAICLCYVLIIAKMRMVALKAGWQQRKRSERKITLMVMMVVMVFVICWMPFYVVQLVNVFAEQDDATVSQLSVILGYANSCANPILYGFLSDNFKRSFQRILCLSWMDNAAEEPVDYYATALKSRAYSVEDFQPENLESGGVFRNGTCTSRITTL
Somatostatin receptor type 3, sequence (P30935 whole entry): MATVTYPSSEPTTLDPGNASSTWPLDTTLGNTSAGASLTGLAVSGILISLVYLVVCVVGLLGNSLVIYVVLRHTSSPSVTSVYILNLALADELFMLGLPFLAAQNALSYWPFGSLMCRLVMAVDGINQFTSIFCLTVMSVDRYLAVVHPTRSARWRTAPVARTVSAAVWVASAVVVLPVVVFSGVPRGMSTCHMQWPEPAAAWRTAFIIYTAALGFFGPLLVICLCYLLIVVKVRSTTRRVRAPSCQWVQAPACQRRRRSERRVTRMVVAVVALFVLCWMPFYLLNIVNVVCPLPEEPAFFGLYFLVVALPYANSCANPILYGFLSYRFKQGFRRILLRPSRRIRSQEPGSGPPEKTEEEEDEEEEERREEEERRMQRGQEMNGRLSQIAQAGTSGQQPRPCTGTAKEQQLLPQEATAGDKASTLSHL
Somatostatin receptor type 2, sequence (P30875 whole entry): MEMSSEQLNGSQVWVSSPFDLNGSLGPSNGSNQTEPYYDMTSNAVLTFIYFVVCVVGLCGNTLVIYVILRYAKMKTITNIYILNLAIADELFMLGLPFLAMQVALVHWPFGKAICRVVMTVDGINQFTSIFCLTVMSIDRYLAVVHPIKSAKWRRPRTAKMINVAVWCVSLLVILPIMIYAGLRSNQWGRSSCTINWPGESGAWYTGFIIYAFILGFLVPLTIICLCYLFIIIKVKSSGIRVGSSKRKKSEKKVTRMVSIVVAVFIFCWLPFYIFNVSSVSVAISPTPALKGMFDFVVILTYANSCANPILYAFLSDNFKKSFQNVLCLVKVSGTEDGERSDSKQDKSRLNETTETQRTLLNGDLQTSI

The term Ki denotes the equilibrium dissociation constant of an inhibitor or competing ligand from its target. A higher Ki goes with a looser hold on the target. For the compound `CC(C)[C@@H]1NC(=O)[C@H](CCCCN)NC(=O)[C@@H](Cc2c[nH]c3ccccc23)NC(=O)[C@H](Cc2ccc(O)cc2)NC(=O)[C@@H](C)N(C)C(=O)[C@H](Cc2ccccc2)NC1=O`, the Ki in test [1] is 419 nM; in test [2], > 10000 nM; in test [3] it was 4.7 nM.

`CC(O)[C@H](CO)NC(=O)[C@@H]1CSSCC(NC(=O)C(N)Cc2ccccc2)C(=O)N[C@H](Cc2ccccc2)C(=O)N[C@H](Cc2c[nH]c3ccccc23)C(=O)N[C@H](CCCCN)C(=O)N[C@H](C(C)O)C(=O)N1` (stereo partly drawn) (H-[ξF][ξC][dF][dW][dK][dThr(3ξ)]C-X2; disulfide 2-7): the Ki in test [2] was found to be 2.4 nM; in test [3], 3 nM.

On to `C[C@@H](O)[C@@H]1NC(=O)[C@H](CCCCN)NC(=O)[C@@H](Cc2c[nH]c3ccccc23)NC(=O)[C@H](Cc2ccccc2)NC(=O)[C@@H]2CCCN2C(=O)[C@H](Cc2ccccc2)NC1=O` (cyclo(PF[dW]KTF)), for which the Ki was determined as 1000 nM in test [1], 8.6 nM in test [2] and 108 nM in test [3].

`CC(C)[C@@H]1NC(=O)[C@H](CCCCN)NC(=O)[C@@H](Cc2c[nH]c3ccccc23)NC(=O)[C@H](Cc2ccc(O)cc2)NC(=O)[C@@H](NC(=O)[C@H](N)Cc2ccc3ccccc3c2)CSSC[C@@H](C(=O)N[C@H](C(N)=O)[C@@H](C)O)NC1=O` [3-(2-Naphtyl)-D-Ala-L-Cys(1)-L-Tyr-D-Trp-L-Lys-L-Val-L-Cys(1)-L-Thr-NH2]: the Ki in test [1] amounted to 789 nM; in test [2] it was 1.6 nM; in test [3], 5.6 nM.

For the compound `C[C@@H](O)[C@@H]1NC(=O)[C@H](CCCCN)NC(=O)[C@@H](Cc2c[nH]c3ccccc23)NC(=O)[C@H](Cc2ccccc2)NC(=O)[C@@H]2CSSCC(NC1=O)C(=O)NCCCCCCC(=O)N2` [(1R,4S,7S,10R,13S,16R)-4-[(R)-1-Hydroxyethyl]-7-(4-aminobutyl)-10-(1H-indole-3-ylmethyl)-13-benzyl-28,29-dithia-2,5,8,11,14,17,25-heptaazabicyclo[14.10.4]triacontane-3,6,9,12,15,18,26-heptone] (cyclo([Ahp]CF[dW]KT[ξC]); disulfide 2-7), the Ki in test [1] is 1000 nM; in test [2], 83 nM; in test [3], 0.08 nM.

On to `CC1NC(=O)C(CCCCN)NC(=O)C(Cc2c[nH]c3ccccc23)NC(=O)C(Cc2ccc(O)cc2)NC(=O)C(NC(=O)C(N)Cc2ccccc2)CSSCC(C(=O)NCc2cccc3ccccc23)NC1=O` (stereo not drawn) [BIM 23034] (H-FCYWKAC-{NH(1-naphthylmethyl)}; disulfide 2-7; configuration not given here), for which the Ki in test [1] worked out at 1000 nM; in test [2], 0.002 nM; in test [3], 65 nM.

With `CC(C)[C@@H]1NC(=O)[C@H](CCCCN)NC(=O)[C@@H](Cc2c[nH]c3ccccc23)NC(=O)[C@H](Cc2ccc(O)cc2)NC(=O)[C@@H](NC(=O)[C@H](N)Cc2ccc3ccccc3c2)CSSC[C@@H](C(=O)N[C@@H](Cc2ccc3ccccc3c2)C(N)=O)NC1=O` [BIM 23042] (H-[d2Nal]CY[dW]KVC[2Nal]-NH2; disulfide 2-7), the Ki was 1000 nM in test [1], 4.2 nM in test [2] and 207 nM in test [3].

In the case of `CC(O)[C@H](NC(=O)[C@H](CCCCN)NC(=O)[C@@H](Cc1c[nH]c2ccccc12)NC(=O)[C@H](Cc1ccccc1)NC(=O)[C@@H](C)NC(=O)[C@@H](N)Cc1ccccc1)C(=O)N[C@@H](C)C(=O)N[C@H](C(N)=O)[C@@H](C)O` (stereo partly drawn) [BIM 23051] (H-F[dA]F[dW]K[Thr(3ξ)]AT-NH2), the Ki in test [1] stood at 1000 nM; in test [2], 836 nM; in test [3], 72 nM.

Regarding `CC(C)[C@H](NC(=O)[C@H](CCCCN)NC(=O)[C@@H](Cc1c[nH]c2ccccc12)NC(=O)[C@H](Cc1ccc(O)cc1)NC(=O)[C@H](Cc1ccccc1)NC(=O)[C@H](N)Cc1ccccc1)C(=O)N[C@@H](Cc1ccccc1)C(=O)N[C@H](Cc1cccc2ccccc12)C(N)=O` [BIM 23056] (H-[dF]FY[dW]KVF[d1Nal]-NH2), the figures for the Ki in test [1], in test [2] and in test [3] were 1000 nM, > 10000 nM and 0.02 nM, respectively.

On to `CC(C)[C@H](NC(=O)[C@H](CCCCN)NC(=O)[C@@H](Cc1c[nH]c2ccccc12)NC(=O)[C@H](Cc1ccc(O)cc1)NC(=O)[C@H](Cc1ccc(Cl)cc1)NC(=O)[C@H](N)Cc1ccccc1)C(=O)N[C@@H](Cc1ccccc1)C(=O)N[C@H](C(N)=O)[C@@H](C)O` [BIM 23057] (H-[dF][Phe(4-Cl)]Y[dW]KVFT-NH2), for which the Ki in test [1] came to 1000 nM; in test [2] it was 2.4 nM; in test [3], 4.8 nM.

For `CC(O)C1NC(=O)C(CCCCN)NC(=O)C(Cc2c[nH]c3ccccc23)NC(=O)C(Cc2ccc(O)cc2)NC(=O)C(NC(=O)C(N)Cc2ccccc2)CSSCC(C(=O)NCc2cccc3ccccc23)NC1=O` (stereo not drawn) [BIM 23060] (H-FCYWKTC-{NH(1-naphthylmethyl)}; disulfide 2-7; configuration not given here), the Ki in test [1] was 1000 nM; in test [2] it was 0.01 nM; in test [3], 17.4 nM.

As for `CC(C)[C@H](NC(=O)[C@H](CCCCN)NC(=O)[C@@H](Cc1c[nH]c2ccccc12)NC(=O)[C@H](Cc1ccc(O)cc1)NC(=O)[C@H](Cc1ccc(Cl)cc1)NC(=O)[C@@H](N)Cc1ccccc1)C(=O)N[C@@H](Cc1ccccc1)C(=O)N[C@@H](Cc1ccc2ccccc2c1)C(N)=O` [BIM 23063] (H-F[Phe(4-Cl)]Y[dW]KVF[2Nal]-NH2), the Ki in test [1] was determined as 1000 nM; in test [2], 248 nM; in test [3] it was 81 nM.

`CC(C)[C@H](NC(=O)[C@H](CCCCN)NC(=O)[C@@H](Cc1c[nH]c2ccccc12)NC(=O)[C@H](Cc1ccc(O)cc1)NC(=O)[C@H](Cc1ccc(Cl)cc1)NC(=O)[C@@H](N)Cc1ccccc1)C(=O)N[C@@H](Cc1ccccc1)C(=O)N[C@H](C)C(N)=O` [BIM 23064] (H-F[Phe(4-Cl)]Y[dW]KVF[dA]-NH2): the Ki in test [1] is 1000 nM; in test [2], 948 nM; in test [3], 34 nM.

On to `CC(C)[C@H](NC(=O)[C@H](CCCCN)NC(=O)[C@@H](Cc1c[nH]c2ccccc12)NC(=O)[C@H](Cc1ccc(O)cc1)NC(=O)[C@H](Cc1ccc([N+](=O)[O-])cc1)NC(=O)[C@H](N)Cc1ccccc1)C(=O)N[C@@H](Cc1ccccc1)C(=O)N[C@H](C(N)=O)[C@@H](C)O` [BIM 23066] (H-[dF][Phe(4-NO2)]Y[dW]KVFT-NH2), for which the Ki was determined as 1000 nM in test [1], 3.1 nM in test [2] and 1.1 nM in test [3].

Regarding `CC[C@H](NC(=O)[C@@H](N)Cc1ccc(Cl)cc1)C(=O)N[C@@H](Cc1ccc(O)cc1)C(=O)N[C@H](Cc1c[nH]c2ccccc12)C(=O)N[C@@H](CCCCN)C(=O)N[C@H](C(=O)N[C@@H](C)C(=O)N[C@H](Cc1ccccc1)C(N)=O)C(C)C` [BIM 23067] (H-[Phe(4-Cl)][Abu]Y[dW]KVA[dF]-NH2), the Ki amounted to 135 nM in test [2] and 123 nM in test [3].

Consider `C[C@@H](O)[C@H](NC(=O)[C@H](Cc1ccccc1)NC(=O)[C@@H](NC(=O)[C@H](CCCCN)NC(=O)[C@@H](Cc1c[nH]c2ccccc12)NC(=O)[C@H](Cc1ccc(O)cc1)NC(=O)[C@H](Cc1ccc(Cl)cc1)NC(=O)[C@H](N)Cc1ccccc1)[C@@H](C)O)C(N)=O` [BIM 23068] (H-[dF][Phe(4-Cl)]Y[dW]KTFT-NH2), for which the Ki turned out to be 1000 nM in test [1], 0.15 nM in test [2] and 0.8 nM in test [3].

For `CC(O)[C@H](NC(=O)[C@H](CCCCN)NC(=O)[C@@H](Cc1c[nH]c2ccccc12)NC(=O)[C@H](Cc1ccc(O)cc1)NC(=O)[C@@H](C)NC(=O)[C@@H](N)Cc1ccccc1)C(=O)N[C@@H](C)C(=O)N[C@@H](Cc1cccc2ccccc12)C(N)=O` (stereo partly drawn) [BIM 23070] (H-F[dA]Y[dW]K[Thr(3ξ)]A[1Nal]-NH2), the Ki stood at 1000 nM in test [1], 7.8 nM in test [2] and 111 nM in test [3].

As to `CC[C@@H]1NC(=O)[C@H](CCCCN)NC(=O)[C@@H](Cc2c[nH]c3ccccc23)NC(=O)[C@H](Cc2ccc(O)cc2)NC(=O)[C@H](C)N(C)C(=O)[C@H](Cc2ccccc2)NC1=O` [BIM-23027] (cyclo([Abu]F[NMeA]Y[dW]K)), the Ki in test [1] came to 1000 nM; in test [2], 0.001 nM; in test [3] it was 2.4 nM.

Take `CC(C)[C@H](NC(=O)[C@H](CCCCN)NC(=O)[C@@H](Cc1c[nH]c2ccccc12)NC(=O)[C@H](Cc1ccc(O)cc1)NC(=O)[C@H](Cc1ccccc1)NC(=O)[C@H](N)Cc1ccccc1)C(=O)N[C@@H](Cc1ccccc1)C(=O)N[C@H](C(N)=O)[C@@H](C)O` [BIM-23058] (H-[dF]FY[dW]KVFT-NH2): the values for the Ki in test [1], in test [2] and in test [3] were 1000 nM, 46 nM and 0.04 nM, respectively.

For the compound `CC(C)[C@@H]1NC(=O)[C@H](CCCCN)NC(=O)[C@@H](Cc2c[nH]c3ccccc23)NC(=O)[C@H](Cc2ccc(O)cc2)NC(=O)CCSSC(C(=O)N[C@@H](Cc2ccccc2)C(N)=O)NC1=O` (stereo partly drawn) [CAS_117580-24-2] ([Mpa]Y[dW]KV[X1]F-NH2; disulfide 1-6), the inhibitory constant (Ki) in test [1] was 1000 nM; in test [2] it was 6.1 nM; in test [3], 133 nM.

With `CC(C)[C@@H]1NC(=O)[C@H](CCCCN)NC(=O)[C@@H](Cc2c[nH]c3ccccc23)NC(=O)[C@H](Cc2ccc(O)cc2)NC(=O)[C@H](C)N(C)C(=O)[C@H](Cc2ccccc2)NC1=O` [CAS_3086456], the Ki was found to be 0.18 nM in test [2] and 12 nM in test [3].

With `C[C@@H](O)[C@@H]1NC(=O)[C@H](Cc2ccccc2)NC(=O)[C@H]([C@@H](C)O)NC(=O)[C@H](CCCCN)NC(=O)[C@@H](Cc2c[nH]c3ccccc23)NC(=O)[C@H](Cc2ccccc2)NC(=O)[C@H](Cc2ccc(Cl)cc2)NC(=O)[C@H](CC(N)=O)NC(=O)[C@H](CCCCN)NC(=O)[C@@H](N)CSSC[C@@H](C(=O)O)NC(=O)[C@H](CO)NC1=O` [EC5-21] (H-CKN[Phe(4-Cl)]F[dW]KTFTSC-OH; disulfide 1-12), the Ki in test [2] is 0.005 nM; in test [3], 2.1 nM.

Compound `C[C@H](N)C(=O)NCC(=O)N[C@H]1CSSC[C@@H](C(=O)O)NC(=O)[C@H](CO)NC(=O)[C@H]([C@@H](C)O)NC(=O)[C@H](Cc2ccccc2)NC(=O)[C@H]([C@@H](C)O)NC(=O)[C@H](CCCCN)NC(=O)[C@@H](Cc2c[nH]c3ccccc23)NC(=O)[C@H](Cc2ccccc2)NC(=O)[C@H](Cc2ccccc2)NC(=O)[C@H](CC(N)=O)NC(=O)[C@H](CCCCN)NC1=O` [SRIF-D-Trp8] yielded a Ki in test [2] of 0.005 nM.

Values taken from BindingDB's records for PubMed 8100350 (University of Pennsylvania, 1993).
